# Values quoted from earlier work, collected in patent publication US20230304100A1, “METHOD OF PREDICTING THERAPEUTIC RESPONSE AND PROGNOSIS OF METASTATIC BREAST CANCER TO CHEMOTHERAPEUTIC AGENTS, AND TREATING METASTATIC BREAST CANCER” (Samsung Life Public Welfare Foundation, priority 2021, published 2023).
# System: premenopausal HR+/HER2− metastatic breast cancer patients
# Conditions: Young-PEARL study
smiles,measurement,value
CCCCCOC(=O)Nc1nc(=O)n([C@@H]2O[C@H](C)[C@@H](O)[C@H]2O)cc1F [capecitabine],median progression-free survival (PFS),14.4 months
